{
  "source": "patent US11020457B2",
  "about": "“Compositions and methods for protecting the kidney from ischemia reperfusion injury” (University of Virginia Patent Foundation, priority 2013, dated 2021)",
  "key": {"[1]": {"system": "TKPTS cells", "assay": "In-vitro hypoxia and re-oxygenation of TKPTS cells, Annexin V/PI flow cytometry", "assay_type": "cell-based, mouse", "conditions": "50 μM hepcidin for 24 hours, 1% hypoxia 6 hours, 6 hours re-oxygenation; p<0.005", "method": "A mouse proximal tubule cell line (TKPTS cells, kindly provided by Dr. E. Bello-Reuss, University of Texas Medical Branch, Galveston, Tex.) was used in these studies. The cells were cultured in advanced DMEM/F12 medium supplemented with glutamine, 7.5% FBS and antibiotics. Cells were grown to 80% confluence and maintained at 37° C. in 5% CO2. All experiments were performed in serum free DMEM/F12 medium for a maximum of 24 hours.\nTKPTS cells were subjected to hypoxia using a hypoxic chamber (Stemcell Technologies) for 6 hrs (5% CO2, 1% O2, and 94% N2) followed by re-oxygenation for 6 hrs (5% CO2, 21% 02, and 74% N2). Three culture conditions were set up: 1. Normoxia (which served as the base line control); 2. Hypoxia; and 3. Cells pretreated with 50 μM hepcidin and subjected to hypoxia. Experiments were carried out in serum free advanced DMEM/F12 medium. At the end of re-oxygenation, cells were stained with Annexin V/PI and extent of apoptosis was determined using flow cytometry.\nTo investigate if hepcidin has a direct anti-apoptotic effect on renal tubular epithelial cells, we subjected murine proximal renal tubular cells (TKPTS) to hypoxia-reoxygenation injury in vitro (34). TKPTS cells were first treated with or without 50 μM hepcidin for 24 hours in 5% serum containing medium. After transferring to serum free medium, the cells were then cultured in 1% hypoxia for 6 hours. […]"}, "[2]": {"system": "C57BL/6 mice", "assay": "Renal IRI in WT mice: plasma creatinine, H&E histology, NGAL", "assay_type": "in vivo", "method": "(§1) All experiments were performed in accordance with the National Institutes of Health and Institutional Animal Care and Use Guidelines. The Animal Care and Use Committee of the University of Virginia approved all procedures and protocols. C57BL/6 mice from the Jackson Laboratory and hepcidin knockout mice (HAMP−/−), a kind gift from Dr Cindy Roy (John Hopkins University) were used in this study. All experiments were performed on 8-10 weeks old male mice. Kidney ischemia-reperfusion surgery was performed as previously reported (44). The core temperature of the mice was maintained between 34° C. and 36° C. using a heating pad. After anesthetizing the mice (ketamine, 12 mg/ml; atropine, 0.48 mg/ml; xylazine, 24 mg/ml; […] mixture administered per 20 g body weight), bilateral flank incisions were made, both renal pedicles were exposed, and cross-clamped for 26 minutes (severe I/R injury) or 24 minutes (mild I/R injury). After the determined ischemia, clamps were removed, and kidneys were allowed to reperfuse for 24 hours. Ambient postoperative air temperature was maintained between 30° C. and 32° C. until mice had fully recovered. Sham-operated animals underwent bilateral flank incisions without clamping of renal pedicles. Twenty-four hours later, mice were euthanized, and tissues were harvested.\nAnimals were divided into three groups, injected intraperitoneally with water and underwent IRI (IRI), injected intraperitoneally with 50-100 μg hepcidin at different time points prior to IRI (Hepcidin-IRI) or were sham operated (Sham). The experimental design is depicted in FIG. 2a.\n(§2) Renal function was determined by measurement of plasma creatinine, determined using a modified Jaffe colorimetric assay (44).\n(§3) Kidneys were fixed in buffered formalin for 48 h, embedded in paraffin, sectioned (3-μm thickness), and stained with hematoxylin and eosin (H&E). The extent of acute tubular necrosis (ATN) following IRI was assessed using H&E stained kidney sections. An investigator blinded to the sample identities was used for these analyses to have an unbiased approach.\n(§4) For RNA isolation, frozen tissues were re-suspended in RLT buffer (Qiagen Inc, Valencia, Calif.) and homogenized using TissueLyser system (Qiagen Inc, Valencia, Calif.). Total RNA from tissue homogenate was purified using RNAeasy mini kit (Qiagen Inc, Valencia, Calif.) following manufacturers instructions. 1 μg of RNA was used to synthesize cDNA using the iScript cDNA synthesis kit (Bio-Rad). The cDNA template was mixed with iTAQ SYBR green universal super mix (Bio-Rad) and quantitative PCR was carried out on CFX Connect system (Bio-Rad). Predesigned primers for Caspase-3 and Bcl-2 were purchased from Bio-rad. Glyceraldehyde-3-phosphate dehydrogenase (GAPDH) was amplified in parallel and used as the reference gene in quantification. Data is expressed as the relative gene expression and was calculated using the 2 (−ρρC(T)) method."}, "[3]": {"system": "hepcidin knockout mice (HAMP−/−)", "assay": "Mild renal IRI in HAMP-/- mice: plasma creatinine, histology, NGAL", "assay_type": "in vivo", "conditions": "for plasma creatinine: HAMP-/- mice, single 50 μg bolus of hepcidin 24 hours before 24 min ischemia, 24 hours reperfusion, p<0.0007; for renal histology (H&E): hepcidin treated HAMP-/- IRI mice", "method": "as §1, §2, §3, §4\nGiven the significance of hepcidin-mediated ferroportin regulation in preventing renal IRI, we hypothesized that genetic hepcidin deficiency would aggravate IRI. […] There was no significant rise in plasma creatinine after mild IRI in the WT mice and sham operated HAMP^−/− mice (FIG. 6a). […] Renal histology further corroborated the deleterious effect of hepcidin deficiency in AKI. There were higher numbers of casts and necrotic tubules in the S1, S2 and S3 segments in HAMP^−/− kidneys after IRI (FIG. 6b, and Sup FIG. 3b). To investigate if hepcidin re-constitution could rescue HAMP^−/− mice from IRI, we injected these mice with a single 50 μg bolus of hepcidin, 24 hours before renal ischemia and sacrificed them 24 hours after reperfusion. Strikingly, a single injection of hepcidin afforded an almost complete protection against IRI in the HAMP^−/− mice."}, "[4]": {"system": "splenocytes from WT mice", "assay": "Iron stimulation of splenocytes, IL-6 secretion by ELISA", "assay_type": "cell-based", "conditions": "1 μg/mL hepcidin for 4 hours, vs untreated splenocytes; FIG. 10c", "method": "Splenocytes were harvested from 10-week-old B6 male mice. After excising the spleen, red blood cells were lysed and the remaining splenocytes were seeded at 1×10^6 cells/mL in 24-well tissue culture plates and cultured under 5% CO2 at 37° C. for 24 hours. The culture medium consisted of RPMI 1640 medium supplemented with 10% fetal calf serum (FCS), 100 U/mL penicillin, 100 μg/mL streptomycin, 1% non-essential amino acids (Gibco/Life Technologies, Foster, Calif., USA), 2 mM L-glutamine (Sigma), and 50/μM 2-mercaptoethanol. After resting for 24 hours, the cells were treated with 10 μM […] (FAC), 1 μg/mL hepcidin or saline for 4 hours. The cell culture supernatants were harvested and quantified for the levels of IL-6 by ELISA (eBioscience)."}},
  "note": "Entries after “also recorded” stand apart in the source; their conditions may differ.",
  "data": [
    {"substance": "Mouse hepcidin 25 (DTNFPICIFCCKCCNNSQCGICCKT; listed as Mus musculus)", "values": [
      {"measurement": "Annexin V/PI positive cells (apoptosis/necrosis)", "setting": "[1]", "value": "significantly lower Annexin V/PI staining compared to untreated cells; also recorded: reduced to levels seen under normoxia"},
      {"measurement": "plasma creatinine, comparison of doses", "setting": "[2]; 50 versus 100 μg hepcidin, 24 hours before IRI", "value": "no significant differences in plasma creatinine"},
      {"measurement": "kidney NGAL expression", "setting": "[2]; IRI Vs Hepcidin-IRI, p<0.001", "value": "significantly lower expression of NGAL"},
      {"measurement": "renal architecture / tubular necrosis (H&E)", "setting": "[2]; hepcidin 50 μg 24 hours before IRI, FIG. 2e", "value": "fewer necrotic tubules and luminal debris"},
      {"measurement": "plasma creatinine", "setting": "[2]; hepcidin 50 μg injected 2 hours prior to IRI, p<0.001 vs untreated IRI", "value": "significantly reduced plasma creatinine levels"},
      {"measurement": "plasma creatinine", "setting": "[2]; hepcidin 50 μg injected 8 hours prior to IRI, p<0.001 vs untreated IRI", "value": "significantly reduced plasma creatinine levels"},
      {"measurement": "plasma creatinine", "setting": "[2]; single bolus of 50 or 100 μg hepcidin intraperitoneally, 24 hours before IRI, measured 24 hours after IRI, p<0.0001", "value": "significantly lowered plasma creatinine levels; also recorded: maximum protection"},
      {"measurement": "kidney NGAL expression", "setting": "[3]; HAMP-/- IRI Vs HAMP-/- Hepcidin-IRI, p<0.05", "value": "significantly lowered NGAL expression"},
      {"measurement": "plasma creatinine", "setting": "[3]", "value": "not significantly different than shams and WT mice"},
      {"measurement": "plasma creatinine", "setting": "[3]; listed as hepcidin", "value": "significantly lower compared to untreated mice with levels comparable to that in sham-operated mice"},
      {"measurement": "renal histology (H&E)", "setting": "[3]", "value": "Hepcidin mediated protection of the kidney after IRI"},
      {"measurement": "renal histology (H&E)", "setting": "[3]; listed as hepcidin", "value": "remarkable preservation of renal histology"},
      {"measurement": "IL-6 secretion into supernatants", "setting": "[4]", "value": "no significant difference in IL-6 levels"}
    ]}
  ]
}
